{"source": "paper PMC4022547", "about": "(Molecular Brain, 2014)", "key": {"[1]": {"target": "hα6(S43P) + WT hβ2 + hβ3^V9’S nAChR (Homo sapiens, UniProt P17787+Q15825, S43P)", "details": "nicotine"}, "[2]": {"target": "hα6(E101K) + codon optimized hβ2 + hβ3^V9’S nAChR (Homo sapiens, UniProt P17787+Q15825, E101K)", "details": "100 μM nicotine; oocytes clamped at −70 mV"}, "[3]": {"target": "hα6(E101K) + hβ4 + hβ3 nAChR (Homo sapiens, UniProt P30926+Q15825, E101K)", "details": "100 μM nicotine; oocytes clamped at −70 mV"}, "[4]": {"target": "hα6(N203T) + WT hβ2 + hβ3^V9’S nAChR (Homo sapiens, UniProt P17787+Q15825, N203T)", "sequence (Q15825 26-494 N203T)": "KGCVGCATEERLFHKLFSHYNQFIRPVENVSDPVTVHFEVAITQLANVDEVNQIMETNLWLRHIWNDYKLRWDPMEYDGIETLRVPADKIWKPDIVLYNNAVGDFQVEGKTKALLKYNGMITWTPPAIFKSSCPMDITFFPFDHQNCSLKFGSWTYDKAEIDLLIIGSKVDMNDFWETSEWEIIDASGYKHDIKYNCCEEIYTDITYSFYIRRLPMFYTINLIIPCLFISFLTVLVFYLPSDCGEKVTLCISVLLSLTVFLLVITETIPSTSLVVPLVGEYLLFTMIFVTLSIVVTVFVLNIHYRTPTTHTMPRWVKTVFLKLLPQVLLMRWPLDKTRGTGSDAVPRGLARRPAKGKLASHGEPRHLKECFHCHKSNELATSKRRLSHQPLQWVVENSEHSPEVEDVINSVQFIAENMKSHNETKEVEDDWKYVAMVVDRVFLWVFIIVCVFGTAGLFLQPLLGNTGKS", "sequence (P17787 26-502)": "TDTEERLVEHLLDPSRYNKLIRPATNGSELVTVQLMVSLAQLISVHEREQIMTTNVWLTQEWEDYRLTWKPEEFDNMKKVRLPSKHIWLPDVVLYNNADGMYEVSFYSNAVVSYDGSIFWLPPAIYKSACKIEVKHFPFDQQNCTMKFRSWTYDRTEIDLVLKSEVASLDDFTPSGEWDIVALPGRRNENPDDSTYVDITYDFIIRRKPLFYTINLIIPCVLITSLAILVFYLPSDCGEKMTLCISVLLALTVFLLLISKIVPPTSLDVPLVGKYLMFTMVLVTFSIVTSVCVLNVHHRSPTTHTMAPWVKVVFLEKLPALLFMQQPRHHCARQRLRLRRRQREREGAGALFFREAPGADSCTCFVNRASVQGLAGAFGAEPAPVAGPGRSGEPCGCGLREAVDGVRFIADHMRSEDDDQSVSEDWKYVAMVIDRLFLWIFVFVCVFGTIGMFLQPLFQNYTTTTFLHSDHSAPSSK", "sequence (Q05901 25-458 V273S partner limits assumed)": "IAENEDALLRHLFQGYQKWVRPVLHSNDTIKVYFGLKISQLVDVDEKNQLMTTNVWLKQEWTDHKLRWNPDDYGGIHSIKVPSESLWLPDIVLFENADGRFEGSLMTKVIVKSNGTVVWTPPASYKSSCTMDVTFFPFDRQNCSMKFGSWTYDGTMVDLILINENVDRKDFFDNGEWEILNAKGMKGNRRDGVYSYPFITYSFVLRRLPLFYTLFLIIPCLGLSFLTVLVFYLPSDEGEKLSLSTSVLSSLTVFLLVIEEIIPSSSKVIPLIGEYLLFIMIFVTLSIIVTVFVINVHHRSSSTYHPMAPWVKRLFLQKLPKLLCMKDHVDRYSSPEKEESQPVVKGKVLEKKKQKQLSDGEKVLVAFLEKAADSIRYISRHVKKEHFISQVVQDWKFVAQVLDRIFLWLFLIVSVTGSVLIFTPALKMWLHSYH", "details": "100 μM nicotine"}, "[5]": {"target": "hα6(N46K) + hβ4 + hβ3 nAChR (Homo sapiens, UniProt P30926+Q15825, N46K)", "sequence (Q15825 26-494 N46K)": "as the sequence (Q15825 26-494 N203T) above, with N21K, T178N counted along it", "sequence (P30926 22-498)": "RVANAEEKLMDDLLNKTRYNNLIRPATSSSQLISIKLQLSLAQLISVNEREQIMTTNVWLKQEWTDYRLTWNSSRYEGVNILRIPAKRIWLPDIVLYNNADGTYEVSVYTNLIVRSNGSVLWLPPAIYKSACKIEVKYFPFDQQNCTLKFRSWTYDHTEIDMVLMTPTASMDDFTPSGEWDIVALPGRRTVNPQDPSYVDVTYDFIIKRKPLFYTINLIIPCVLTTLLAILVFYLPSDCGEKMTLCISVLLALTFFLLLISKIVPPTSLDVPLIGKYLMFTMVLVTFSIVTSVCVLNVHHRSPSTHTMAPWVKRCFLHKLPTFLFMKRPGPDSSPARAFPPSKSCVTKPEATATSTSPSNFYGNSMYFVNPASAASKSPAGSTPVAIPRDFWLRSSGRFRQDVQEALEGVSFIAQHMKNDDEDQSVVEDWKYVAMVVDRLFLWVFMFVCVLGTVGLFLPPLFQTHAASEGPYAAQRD", "sequence (Q05901 25-458 partner limits assumed)": "as the sequence (Q05901 25-458 V273S partner limits assumed) above, with S249V counted along it", "details": "100 μM nicotine; oocytes clamped at −70 mV"}, "[6]": {"target": "hα6(R96H) + codon optimized hβ2 + hβ3^V9’S nAChR (Homo sapiens, UniProt P17787+Q15825, R96H)", "details": "100 μM nicotine; oocytes clamped at −70 mV"}, "hα6(E101K) + hβ4 nAChR": {"target": "hα6(E101K) + hβ4 nAChR (Homo sapiens, UniProt P30926+Q15825, E101K)", "sequence (Q15825 26-494 E101K)": "as the sequence (Q15825 26-494 N203T) above, with E76K, T178N counted along it", "sequence (P30926 22-498)": "as the sequence (P30926 22-498) above", "details": "100 μM nicotine; oocytes clamped at −70 mV"}, "hα6 + hβ4 nAChR": {"target": "hα6 + hβ4 nAChR (Homo sapiens, UniProt P30926+Q15825)", "sequence (Q15825 26-494)": "as the sequence (Q15825 26-494 N203T) above, with T178N counted along it", "sequence (P30926 22-498)": "as the sequence (P30926 22-498) above", "parameters": "method as in Kuryatov et al. (2000) [29]", "details": "ref Kuryatov et al. (2000) [29]; cited from earlier work"}, "[7]": {"target": "hα6^R87C + hβ4 + hβ3^V9’S nAChR (Homo sapiens, UniProt P30926+Q15825, R87C)", "details": "nicotine (100 μM), ACh (100 μM) or atropine (1000 μM)", "protocol": "(§1) We planned to introduce identical amounts of cRNA, presumably producing equal amounts of each subunit protein, into oocytes largely due to lack of information about the levels of mRNA for each subunits that compose α6*-nAChRs in neurons or other cells. Concentrations of cRNAs for each nAChR α and β subunits (WT, mutant or variant) were adjusted to 500 ng μL^−1. We provisionally assumed that hα6 or its variants in association with hβ2 or hβ4 subunits would form complexes having 2:3 and/or 3:2 ratios of the indicated subunits and that oocytes also injected with WT or mutant form of β3 subunits (i.e., β3^V9’S) would express nAChR with 2:2:1 ratios of α:β:(β3 or β3^V9’S) subunits. For expression of binary nAChRs (i.e., two subunit containing nAChRs; α + β but not β3) cRNA mixtures were prepared by mixing 1 μL of cRNA for each subunit and an additional μL of RNAse free water (i.e., total volume 3 μL). Similarly for expression of ternary nAChRs [i.e., three subunit containing nAChRs; (α + β) + (β3 or β3^V9’S)] cRNA mixtures were prepared by mixing 1 μL of cRNA for each subunit. Several preparations of each mixture were prepared and stored at −80°C until further use. Injection of 138 nL of cRNA, out of 3 μL cRNA mixtures, into each oocyte would deliver ~23 ng of cRNA for each subunit whether binary or ternary nAChRs are expressed.\n(§2) Two to 5 days after injection, oocytes were placed in a small-volume chamber and continuously perfused with OR2. The chamber was grounded through an agarose bridge. The oocytes were voltage-clamped at −70 mV (unless otherwise noted) to measure agonist or antagonist induced currents using Axoclamp 900A and pClamp 10.2 software (Molecular Devices, Sunnyvale, CA). The current signal was low-pass filtered at 10 Hz with the built-in low-pass Bessel filter in the Axoclamp 900A and digitized at 20 Hz with Axon Digidata1440A and pClamp10. […] Drugs (agonists and antagonists) were prepared daily in OR2. Drug was applied using a Valvelink 8.2 perfusion system (Automate scientific, Berkeley, CA). […] Then for the purpose of comparison electrophysiological recordings were performed in a given day in a given batch of oocytes following the same order of injections. […] All hβ4*-nAChR recordings were done in similar conditions to facilitate comparisons between hα6hβ4- and hα6hβ4hβ3-nAChRs. All electrophysiological measurements were conducted or checked in at least two batches of oocytes."}, "hα6hβ4hβ3^V9’S-nAChR": {"target": "hα6hβ4hβ3^V9’S-nAChR (Homo sapiens, UniProt P30926+Q05901+Q15825, V273S)", "details": "nicotine (100 μM), ACh (100 μM) or atropine (1000 μM); spontaneously opening channels", "protocol": "as §1, §2"}, "[8]": {"target": "hα6^D57Nhβ4hβ3^V9’S-nAChR (Homo sapiens, UniProt P30926+Q15825, D57N)", "details": "nicotine (100 μM), ACh (100 μM) or atropine (1000 μM)", "protocol": "as §1, §2"}, "[9]": {"target": "hα6^S156Rhβ4hβ3^V9’S-nAChR (Homo sapiens, UniProt P30926+Q15825, S156R)", "details": "nicotine (100 μM), ACh (100 μM) or atropine (1000 μM)", "protocol": "as §1, §2"}, "[10]": {"target": "hα6^N171Khβ4β3^V9’S-nAChR (Homo sapiens, UniProt P30926+Q15825, N171K)", "details": "nicotine (100 μM), ACh (100 μM) or atropine (1000 μM)", "protocol": "as §1, §2"}, "hα6 + hβ4 + hβ3 nAChR": {"target": "hα6 + hβ4 + hβ3 nAChR (Homo sapiens, UniProt P30926+Q15825)", "parameters": "method as in PMID 11044728", "details": "ref [29]; cited from earlier work"}}}
{"compound": "CN1CCC[C@H]1c1cccnc1", "note": "[nicotine, L-nicotine]", "values": [{"measurement": "current response", "setting": "[1]", "value": "did not yield current responses"}, {"measurement": "peak current (Imax, mean ± SE)", "setting": "[2]", "value": "551 ± 156", "unit": "nA"}, {"measurement": "Mean (±SE) peak current response", "setting": "[3]", "value": "467 ± 54", "unit": "nA"}, {"measurement": "peak current response", "setting": "[4]; 3 days after cRNA injection", "value": "15-30 nA"}, {"measurement": "Mean (±SEM) current response", "setting": "[4]; 5 days after injection", "value": "53 ± 12", "unit": "nA"}, {"measurement": "Mean (±SE) peak current response", "setting": "[5]", "value": "307 ± 39", "unit": "nA"}, {"measurement": "peak current (Imax, mean ± SE)", "setting": "[6]", "value": "1075 ± 175", "unit": "nA"}, {"measurement": "peak current (Imax, mean ± SE)", "setting": "hα6(E101K) + hβ4 nAChR", "value": "73 ± 10", "unit": "nA"}, {"measurement": "EC50", "setting": "hα6 + hβ4 nAChR", "value": 7.1, "unit": "µM"}, {"measurement": "current response", "setting": "[7]", "value": "not obtained"}, {"measurement": "current response (direction)", "setting": "hα6hβ4hβ3^V9’S-nAChR", "value": "robust inward current"}, {"measurement": "current response (direction)", "setting": "[8]", "value": "outward reversible currents"}, {"measurement": "current response (direction)", "setting": "[9]", "value": "outward reversible currents"}, {"measurement": "current response (direction)", "setting": "[10]", "value": "outward reversible currents"}, {"measurement": "EC50", "setting": "hα6 + hβ4 + hβ3 nAChR", "value": "10 ± 3", "unit": "µM"}]}
